In patent publication US20260138978A1, “POSITIVE ALLOSTERIC MODULATORS OF THE MUSCARINIC ACETYLCHOLINE RECEPTOR M1” (Vanderbilt University, priority 2022, published 2026):

Tests used:
human mAChRM1 [1] = target: T1, human mAChRM1 (Homo sapiens, UniProt P11229); assay: mAChR M1 cell-based functional assay (calcium mobilization), positive allosteric modulator activity: increase in the EC20 acetylcholine response; settings: for Emax: PAM mode; for EC50: increase in the EC20 acetylcholine response, read-out: PAM Activity Human M1 EC50
T1 construct: host or cells: CHO-K1
T1 sequence (P11229 1-460): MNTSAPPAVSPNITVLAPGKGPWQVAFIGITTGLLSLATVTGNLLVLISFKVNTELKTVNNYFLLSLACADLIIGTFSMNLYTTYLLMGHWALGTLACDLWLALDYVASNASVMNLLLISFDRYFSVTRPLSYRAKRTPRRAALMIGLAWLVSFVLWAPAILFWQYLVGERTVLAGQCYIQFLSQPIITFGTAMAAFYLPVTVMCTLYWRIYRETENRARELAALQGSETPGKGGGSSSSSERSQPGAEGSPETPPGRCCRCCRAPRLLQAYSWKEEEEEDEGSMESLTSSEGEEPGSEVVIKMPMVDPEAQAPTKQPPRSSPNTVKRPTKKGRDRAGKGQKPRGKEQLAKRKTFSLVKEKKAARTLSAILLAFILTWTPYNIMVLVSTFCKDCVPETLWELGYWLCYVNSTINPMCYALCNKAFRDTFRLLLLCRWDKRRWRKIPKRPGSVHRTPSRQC
Procedure, shortened: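 CHO-K1 cells stably expressing human M1, loaded with Fluo-4 AM; calcium flux recorded on FDSS at 1 Hz over 300 s following compound addition. PAM activity is the concentration-dependent increase of an EC20 acetylcholine response; EC50 and Emax from four-parameter logistic fits of 11-point, 1:3 concentration series.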

human mAChRM1 [2] = target: T1, human mAChRM1; assay: mAChR M1 cell-based functional assay (calcium mobilization), agonist activity upon compound addition, Emax relative to acetylcholine maximum; settings: for EC50 / Agonist Activity Human M1 EC50: calcium mobilization upon compound addition; for Emax: relative to the maximum for acetylcholine
Procedure, shortened: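 CHO-K1 cells stably expressing human M1 were loaded with Fluo-4 AM for 50 min at 37 °C. Compound was added 4 s into a 300 s FDSS read at 1 Hz, over 11-point 1:3 dilution curves. Agonism was taken as a concentration-dependent rise in calcium fluorescence ratio, with Emax expressed relative to the acetylcholine maximum from four-parameter logistic fits.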

For `Cn1cc2c(-c3cc(F)c(CN4Cc5ncccc5C4=O)c(F)c3)ccc(C3(O)CN(C(=O)OC(C)(C)C)C3)c2n1` [Compound 113, tert-butyl 3-(4-(3,5-difluoro-4-((5-oxo-5,7-dihydro-6H-pyrrolo[3,4-b]pyridin-6-yl)methyl)phenyl)-2-methyl-2H-indazol-7-yl)-3-hydroxyazetidine-1-carboxylate], the Emax (human mAChRM1 [1]) was 76%, the EC50 (human mAChRM1 [1]) was 856 nM and the EC50 (human mAChRM1 [2]) was no less than 10000 nM. The Emax (human mAChRM1 [2]) was 13%.
`Cn1cc2c(-c3cc(F)c(CN4Cc5ncccc5C4=O)c(F)c3)ccc(C3(O)CNC3)c2n1` [Compound 114, 6-(2,6-Difluoro-4-(7-(3-hydroxyazetidin-3-yl)-2-methyl-2H-indazol-4-yl)benzyl)-6,7-dihydro-5H-pyrrolo[3,4-b]pyridin-5-one] was tested, and the Emax (human mAChRM1 [1]) was 56%, the EC50 (human mAChRM1 [1]) was no less than 10000 nM and the “Agonist Activity Human M1 EC50” value (human mAChRM1 [2]) was “inactive”.
In the case of `Cc1nc2c(-c3cc(F)c(CN4Cc5ncccc5C4=O)c(F)c3)ccc(C(C)(C)O)n2n1` [Compound 115, 6-(2,6-difluoro-4-(5-(2-hydroxypropan-2-yl)-2-methyl-[1,2,4]triazolo[1,5-a]pyridin-8-yl)benzyl)-6,7-dihydro-5H-pyrrolo[3,4-b]pyridin-5-one], the Emax (human mAChRM1 [1]) is reported as 89%, the EC50 (human mAChRM1 [1]) is reported as 531 nM and the EC50 (human mAChRM1 [2]) is reported as 8000 nM. For the same molecule, the Emax (human mAChRM1 [2]) was 29%.
In the case of `COc1cc(-c2ccc(C(C)(C)O)c3nn(C)cc23)cc(F)c1CN1Cc2cccnc2C1=O` [Compound 116, 6-(2-fluoro-4-(7-(2-hydroxypropan-2-yl)-2-methyl-2H-indazol-4-yl)-6-methoxybenzyl)-5,6-dihydro-7H-pyrrolo[3,4-b]pyridin-7-one], the Emax (human mAChRM1 [1]) is reported as 88%, the EC50 (human mAChRM1 [1]) is reported as 233 nM and the EC50 (human mAChRM1 [2]) is reported as no less than 10000 nM. The Emax (human mAChRM1 [2]) was 17%.
For `CC(C)(O)c1ccc(-c2cc(F)c(CN3Cc4cccnc4C3=O)c(F)c2)cc1` [Compound 117, 6-((3,5-difluoro-4′-(2-hydroxypropan-2-yl)-[1,1′-biphenyl]-4-yl)methyl)-5,6-dihydro-7H-pyrrolo[3,4-b]pyridin-7-one], the Emax (human mAChRM1 [1]) was 68%, the EC50 (human mAChRM1 [1]) was 1450 nM and the “Agonist Activity Human M1 EC50” value (human mAChRM1 [2]) was “inactive”.
For `COc1cc(-c2ccc(C(C)(C)O)cc2)cc(F)c1CN1Cc2cccnc2C1=O` [Compound 119, 6-((3-fluoro-4′-(2-hydroxypropan-2-yl)-5-methoxy-[1,1′-biphenyl]-4-yl)methyl)-5,6-dihydro-7H-pyrrolo[3,4-b]pyridin-7-one], the Emax (human mAChRM1 [1]) was 58%, the EC50 (human mAChRM1 [1]) was no less than 10000 nM and the “Agonist Activity Human M1 EC50” value (human mAChRM1 [2]) was “inactive”.
For `CC(C)(O)c1ccc(-c2cc(F)c(CN3Cc4cccnc4C3=O)c(Cl)c2)cc1` [Compound 120, 6-((3-chloro-5-fluoro-4′-(2-hydroxypropan-2-yl)-[1,1′-biphenyl]-4-yl)methyl)-5,6-dihydro-7H-pyrrolo[3,4-b]pyridin-7-one], the Emax (human mAChRM1 [1]) was 66%, the EC50 (human mAChRM1 [1]) was 3700 nM and the “Agonist Activity Human M1 EC50” value (human mAChRM1 [2]) was “inactive”.
With `Cn1cc2c(-c3cc(F)c(CN4Cc5cccnc5C4=O)c(F)c3)ccc(C(C)(C)O)c2n1` [Compound 121, 6-(2,6-difluoro-4-(7-(2-hydroxypropan-2-yl)-2-methyl-2H-indazol-4-yl)benzyl)-5,6-dihydro-7H-pyrrolo[3,4-b]pyridin-7-one] the Emax (human mAChRM1 [1]) was 88%, the EC50 (human mAChRM1 [1]) was 201 nM and the EC50 (human mAChRM1 [2]) was no less than 10000 nM. The Emax (human mAChRM1 [2]) was 22%.
`Cn1cc2c(-c3cc(F)c(CN4Cc5cccnc5C4=O)c(Cl)c3)ccc(C(C)(C)O)c2n1` [Compound 122, 6-(2-Chloro-6-fluoro-4-(7-(2-hydroxypropan-2-yl)-2-methyl-2H-indazol-4-yl)benzyl)-5,6-dihydro-7H-pyrrolo[3,4-b]pyridin-7-one] was tested, and the Emax (human mAChRM1 [1]) was 86%, the EC50 (human mAChRM1 [1]) was 231 nM and the EC50 (human mAChRM1 [2]) was no less than 10000 nM. For the same molecule, the Emax (human mAChRM1 [2]) was 20%.
`Cc1cc(-c2ccc(C(C)(C)O)c3nn(C)cc23)cc(F)c1CN1Cc2cccnc2C1=O` [Compound 123, 6-(2-fluoro-4-(7-(2-hydroxypropan-2-yl)-2-methyl-2H-indazol-4-yl)-6-methylbenzyl)-5,6-dihydro-7H-pyrrolo[3,4-b]pyridin-7-one] showed an Emax (human mAChRM1 [1]) of 84%, an EC50 (human mAChRM1 [1]) of 124 nM and an EC50 (human mAChRM1 [2]) of no less than 10000 nM. It also gave an Emax (human mAChRM1 [2]) of 34%.
In the case of `Cn1cc2c(-c3cnc(CN4Cc5cccnc5C4=O)c(F)c3)ccc(C(C)(C)O)c2n1` [Compound 124, 6-((3-fluoro-5-(7-(2-hydroxypropan-2-yl)-2-methyl-2H-indazol-4-yl)pyridin-2-yl)methyl)-5,6-dihydro-7H-pyrrolo[3,4-b]pyridin-7-one], the Emax (human mAChRM1 [1]) is reported as 84%, the EC50 (human mAChRM1 [1]) is reported as 1870 nM and the “Agonist Activity Human M1 EC50” value (human mAChRM1 [2]) is reported as “inactive”.
With `CN(C)c1cc(-c2ccc(C(C)(C)O)c3nn(C)cc23)cc(F)c1CN1Cc2cccnc2C1=O` [Compound 125, 6-(2-(dimethylamino)-6-fluoro-4-(7-(2-hydroxypropan-2-yl)-2-methyl-2H-indazol-4-yl)benzyl)-5,6-dihydro-7H-pyrrolo[3,4-b]pyridin-7-one] the Emax (human mAChRM1 [1]) was 77%, the EC50 (human mAChRM1 [1]) was no less than 10000 nM and the “Agonist Activity Human M1 EC50” value (human mAChRM1 [2]) was “inactive”.
`COCCOc1cc(-c2ccc(C(C)(C)O)c3nn(C)cc23)cc(F)c1CN1Cc2cccnc2C1=O` [Compound 126, 6-(2-fluoro-4-(7-(2-hydroxypropan-2-yl)-2-methyl-2H-indazol-4-yl)-6-(2-methoxyethoxy)benzyl)-5,6-dihydro-7H-pyrrolo[3,4-b]pyridin-7-one] gave an Emax (human mAChRM1 [1]) of 83%, an EC50 (human mAChRM1 [1]) of 61 nM and an EC50 (human mAChRM1 [2]) of 3730 nM. The Emax (human mAChRM1 [2]) was 54%.
For `CC(C)(O)c1ccc(-c2ccc(CN3Cc4cccnc4C3=O)c(F)c2)cc1` [Compound 127, 6-((3-fluoro-4′-(2-hydroxypropan-2-yl)-[1,1′-biphenyl]-4-yl)methyl)-5,6-dihydro-7H-pyrrolo[3,4-b]pyridin-7-one], the Emax (human mAChRM1 [1]) was 81%, the EC50 (human mAChRM1 [1]) was 4530 nM and the “Agonist Activity Human M1 EC50” value (human mAChRM1 [2]) was “inactive”.
With `CC(C)(O)c1ccc(-c2ccc(CN3Cc4cccnc4C3=O)cc2)cc1` [Compound 128, 6-((4′-(2-hydroxypropan-2-yl)-[1,1′-biphenyl]-4-yl)methyl)-5,6-dihydro-7H-pyrrolo[3,4-b]pyridin-7-one] the Emax (human mAChRM1 [1]) was 57%, the EC50 (human mAChRM1 [1]) was 7140 nM and the “Agonist Activity Human M1 EC50” value (human mAChRM1 [2]) was “inactive”.
For `Cc1cc(-c2ccc(C(C)(C)O)cc2)ccc1CN1Cc2cccnc2C1=O` [Compound 129, 6-((4′-(2-hydroxypropan-2-yl)-3-methyl-[1,1′-biphenyl]-4-yl)methyl)-5,6-dihydro-7H-pyrrolo[3,4-b]pyridin-7-one], the Emax (human mAChRM1 [1]) was 65%, the EC50 (human mAChRM1 [1]) was no less than 10000 nM and the “Agonist Activity Human M1 EC50” value (human mAChRM1 [2]) was “inactive”.
In the case of `Cn1cc2c(-c3ccc(CN4Cc5cccnc5C4=O)c(F)c3)ccc(C(C)(C)O)c2n1` [Compound 130, 6-(2-fluoro-4-(7-(2-hydroxypropan-2-yl)-2-methyl-2H-indazol-4-yl)benzyl)-5,6-dihydro-7H-pyrrolo[3,4-b]pyridin-7-one], the Emax (human mAChRM1 [1]) is reported as 88%, the EC50 (human mAChRM1 [1]) is reported as 251 nM and the EC50 (human mAChRM1 [2]) is reported as 7490 nM. For the same molecule, the Emax (human mAChRM1 [2]) was 12%.
With `Cn1cc2c(-c3ccc(CN4Cc5cccnc5C4=O)cc3)ccc(C(C)(C)O)c2n1` [Compound 131, 6-(4-(7-(2-hydroxypropan-2-yl)-2-methyl-2H-indazol-4-yl)benzyl)-5,6-dihydro-7H-pyrrolo[3,4-b]pyridin-7-one] the Emax (human mAChRM1 [1]) was 92%, the EC50 (human mAChRM1 [1]) was 825 nM and the “Agonist Activity Human M1 EC50” value (human mAChRM1 [2]) was “inactive”.
For `Cc1cc(-c2ccc(C(C)(C)O)c3nn(C)cc23)ccc1CN1Cc2cccnc2C1=O` [Compound 132, 6-(4-(7-(2-hydroxypropan-2-yl)-2-methyl-2H-indazol-4-yl)-2-methylbenzyl)-5,6-dihydro-7H-pyrrolo[3,4-b]pyridin-7-one], the Emax (human mAChRM1 [1]) was 87%, the EC50 (human mAChRM1 [1]) was 499 nM and the EC50 (human mAChRM1 [2]) was no less than 10000 nM. It also gave an Emax (human mAChRM1 [2]) of 14%.
For `Cn1cc2c(-c3cc(F)c(CN4Cc5cccnc5C4=O)c(C4CC4)c3)ccc(C(C)(C)O)c2n1` [Compound 133, 6-(2-cyclopropyl-6-fluoro-4-(7-(2-hydroxypropan-2-yl)-2-methyl-2H-indazol-4-yl)benzyl)-5,6-dihydro-7H-pyrrolo[3,4-b]pyridin-7-one], the Emax (human mAChRM1 [1]) was 79%, the EC50 (human mAChRM1 [1]) was 61 nM and the EC50 (human mAChRM1 [2]) was 4420 nM. The Emax (human mAChRM1 [2]) was 72%.
For `Cn1cc2c(-c3cc(Cl)c(CN4Cc5cccnc5C4=O)c(C4CC4)c3)ccc(C(C)(C)O)c2n1` [Compound 134, 6-(2-chloro-6-cyclopropyl-4-(7-(2-hydroxypropan-2-yl)-2-methyl-2H-indazol-4-yl)benzyl)-5,6-dihydro-7H-pyrrolo[3,4-b]pyridin-7-one], the Emax (human mAChRM1 [1]) was 76%, the EC50 (human mAChRM1 [1]) was 1310 nM and the EC50 (human mAChRM1 [2]) was 9050 nM. For the same molecule, the Emax (human mAChRM1 [2]) was 60%.
Molecule `Cn1cc2c(-c3cc(F)c(CN4Cc5cccnc5C4=O)c(N4CCC4)c3)ccc(C(C)(C)O)c2n1` [Compound 135, 6-(2-(azetidin-1-yl)-6-fluoro-4-(7-(2-hydroxypropan-2-yl)-2-methyl-2H-indazol-4-yl)benzyl)-5,6-dihydro-7H-pyrrolo[3,4-b]pyridin-7-one] has an Emax (human mAChRM1 [1]) of 80%, an EC50 (human mAChRM1 [1]) of 1030 nM and an EC50 (human mAChRM1 [2]) of no less than 10000 nM. The Emax (human mAChRM1 [2]) was 23%.
